# Results taken from ChEMBL document CHEMBL1201862, “PubChem BioAssay data set” (2004).
# Activity calls are given as the source filed them.
# How the values were obtained:
# [1] = target: Estrogen receptor beta (Homo sapiens, UniProt Q92731);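 note: recombinant ER-beta bound to coactivator SRC1 peptide in presence of estradiol agonist; inhibitors block coactivator peptide binding and lower the FRET signal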
# [2] = test system: Vero; experiment: mammalian cell viability reduction – secondary assay, cytotoxicity control for West Nile virus antiviral project, dose response (AID 1650); type: functional; details: Chlorocebus sabaeus
# [3] = M. tuberculosis H37Rv growth inhibitors, H37Rv strain (AID 1626); type: functional
# [4] = target: Sphingosine 1-phosphate receptor 2 (Homo sapiens, UniProt O95136); experiment: Dose Response Cell Based Assay for Agonists of the S1P2 Receptor of Purchased Analogues. [Related pubchem assays: 729, 843, 854, 736 ]; type: functional
# [5] = HEK-293T viability loss after treatment – luminescence, T-cell screen hits, cytotoxicity control for TCR NF-kB inhibitor project, dose response (AID 489026); type: functional, cell-based;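 note: cells exposed to compound about 14 hours before the viability readout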
# [6] = target: T1, Galanin receptor type 3 (Homo sapiens, UniProt O60755); experiment: Fluorescence-based cell-based primary high throughput dose response assay to identify antagonists of the Galanin Receptor 3 (GalR3).; type: functional
# T1 sequence (O60755 whole entry): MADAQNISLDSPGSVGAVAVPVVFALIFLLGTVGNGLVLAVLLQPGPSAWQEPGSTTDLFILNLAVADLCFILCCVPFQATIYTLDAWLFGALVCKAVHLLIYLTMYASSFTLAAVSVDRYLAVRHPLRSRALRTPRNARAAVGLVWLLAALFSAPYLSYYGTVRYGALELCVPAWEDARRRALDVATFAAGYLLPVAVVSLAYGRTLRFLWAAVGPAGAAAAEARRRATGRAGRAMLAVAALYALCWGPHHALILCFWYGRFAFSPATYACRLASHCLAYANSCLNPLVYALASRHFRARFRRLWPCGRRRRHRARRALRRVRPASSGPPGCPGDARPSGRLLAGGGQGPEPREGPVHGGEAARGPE
# [7] = cells; type: functional, cell-based; details: HEK-CNG
# [8] = target: T2, COUP transcription factor 2 (Homo sapiens, UniProt P24468); experiment: Luminescence-based cell-based high throughput dose response assay to identify inhibitors of COUP-TFII (NR2F2).; type: functional;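 note: HEK293 cells transiently cotransfected with COUP-TFII expression vector and reporter; luciferase reporter luminescence driven by COUP-TFII from the pX2-168 reporter plasmid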
# T2 sequence (P24468 whole entry): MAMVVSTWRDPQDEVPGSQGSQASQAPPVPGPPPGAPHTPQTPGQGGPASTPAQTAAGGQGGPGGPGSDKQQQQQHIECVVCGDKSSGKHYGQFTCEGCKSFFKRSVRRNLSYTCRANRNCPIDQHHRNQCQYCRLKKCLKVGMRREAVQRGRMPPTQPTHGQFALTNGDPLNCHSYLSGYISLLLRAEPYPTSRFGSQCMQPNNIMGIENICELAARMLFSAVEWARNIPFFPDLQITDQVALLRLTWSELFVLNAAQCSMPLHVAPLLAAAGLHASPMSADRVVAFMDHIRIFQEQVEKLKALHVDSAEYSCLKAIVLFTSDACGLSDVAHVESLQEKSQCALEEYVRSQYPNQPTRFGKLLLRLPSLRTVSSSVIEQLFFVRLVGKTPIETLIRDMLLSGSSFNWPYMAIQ
# [9] = target: Kallikrein-7 (Homo sapiens, UniProt P49862); experiment: Fluorescence Intensity-based biochemical primary high throughput dose response assay to identify activators of kallikrein-7 (K7) zymogen.
# [10] = target: T3, Carboxy-terminal domain RNA polymerase II polypeptide A small phosphatase 1 (Homo sapiens, UniProt Q9GZU7); experiment: CTDSP1 inhibitors, concentration-response, biochemical, absorbance readout, ultra-high-throughput screen actives (AID 540297); type: functional
# T3 sequence (Q9GZU7 whole entry): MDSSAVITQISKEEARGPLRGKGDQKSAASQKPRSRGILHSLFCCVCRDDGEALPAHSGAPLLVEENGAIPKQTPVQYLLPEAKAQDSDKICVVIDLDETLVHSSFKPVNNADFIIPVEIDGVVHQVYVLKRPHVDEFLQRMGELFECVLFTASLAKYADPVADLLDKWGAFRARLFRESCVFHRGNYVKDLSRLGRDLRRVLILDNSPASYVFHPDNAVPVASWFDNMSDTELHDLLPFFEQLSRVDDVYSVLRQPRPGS
# [11] = target: T4, Caspase-6 (Homo sapiens, UniProt P55212); experiment: inhibition of CASP6 peptide cleavage – biochemical, VEID-R110 fluorescence, cherry-pick, dose response (AID 720632)
# T4 sequence (P55212 whole entry): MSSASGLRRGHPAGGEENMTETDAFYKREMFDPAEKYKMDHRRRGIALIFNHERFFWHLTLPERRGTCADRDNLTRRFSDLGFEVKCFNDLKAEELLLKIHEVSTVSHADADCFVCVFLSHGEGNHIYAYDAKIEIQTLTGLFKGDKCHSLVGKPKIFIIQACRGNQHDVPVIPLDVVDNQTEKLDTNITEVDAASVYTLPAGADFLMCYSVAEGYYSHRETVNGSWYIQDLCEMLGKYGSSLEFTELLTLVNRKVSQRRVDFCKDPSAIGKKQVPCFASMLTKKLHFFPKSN
# [12] = cells
# [13] = target: T5, Mannose-6-phosphate isomerase (Homo sapiens, UniProt P34949); experiment: MPI enzyme activity inhibition – biochemical, fluorescence intensity, coupled assay, primary screen (AID 1209)
# T5 sequence (P34949 whole entry): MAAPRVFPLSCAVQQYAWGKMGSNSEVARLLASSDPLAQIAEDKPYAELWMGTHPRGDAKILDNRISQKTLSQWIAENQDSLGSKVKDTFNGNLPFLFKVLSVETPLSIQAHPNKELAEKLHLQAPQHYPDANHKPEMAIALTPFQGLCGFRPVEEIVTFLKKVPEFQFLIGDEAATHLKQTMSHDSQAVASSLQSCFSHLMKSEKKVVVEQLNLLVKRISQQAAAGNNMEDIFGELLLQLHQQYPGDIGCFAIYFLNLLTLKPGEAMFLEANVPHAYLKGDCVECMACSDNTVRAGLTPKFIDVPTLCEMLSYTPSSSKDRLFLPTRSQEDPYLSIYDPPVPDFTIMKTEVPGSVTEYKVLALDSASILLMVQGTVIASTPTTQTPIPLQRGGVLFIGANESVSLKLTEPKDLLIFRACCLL
# [14] = target: T5, Mannose-6-phosphate isomerase; experiment: MPI inhibition at elevated mannose 6-phosphate – biochemical, fluorescence intensity, high mannose 6-phosphate, primary screen (AID 1220)
# [15] = target: T6, Protein skinhead-1 (Caenorhabditis elegans, UniProt P34707); type: functional
# T6 sequence (P34707 whole entry): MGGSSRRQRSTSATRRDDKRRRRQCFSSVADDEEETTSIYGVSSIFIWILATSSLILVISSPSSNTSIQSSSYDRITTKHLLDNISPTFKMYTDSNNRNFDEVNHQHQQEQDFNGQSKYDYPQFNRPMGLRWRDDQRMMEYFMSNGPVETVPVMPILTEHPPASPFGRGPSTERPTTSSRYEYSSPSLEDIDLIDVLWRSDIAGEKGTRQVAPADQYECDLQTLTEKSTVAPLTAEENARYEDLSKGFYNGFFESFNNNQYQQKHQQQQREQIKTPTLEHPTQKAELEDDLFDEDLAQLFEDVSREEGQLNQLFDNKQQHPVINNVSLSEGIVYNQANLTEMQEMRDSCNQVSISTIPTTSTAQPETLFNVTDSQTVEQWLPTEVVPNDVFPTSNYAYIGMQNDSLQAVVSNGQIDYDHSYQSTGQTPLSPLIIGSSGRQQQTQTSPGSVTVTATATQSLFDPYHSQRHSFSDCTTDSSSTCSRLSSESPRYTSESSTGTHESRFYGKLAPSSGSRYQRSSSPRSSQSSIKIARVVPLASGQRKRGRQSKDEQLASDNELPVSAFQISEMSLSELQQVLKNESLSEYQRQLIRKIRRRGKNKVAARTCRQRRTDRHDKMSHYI
# [16] = viability of uninfected HEp-2 cells – cell-based, HTS, cytotoxicity control for RSV inhibitor project, dose response (AID 2410); type: functional; details: human respiratory syncytial virus
# [17] = reduction of Shn3 3'UTR-driven luciferase in osteoblasts – cell-based, Clone20 osteoblasts, firefly luciferase, cherry-picked, dose response (AID 624132); type: functional;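 note: firefly luciferase luminescence from reporter carrying the Shn3 3'UTR in osteoblasts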
# [18] = loss of viability in HepG2 cells – cell-based, CellTiter-Glo, cherry-picked, cytotoxicity control for Shn3 inhibitor project, dose response (AID 624134); type: functional
# [19] = non-specific 3'UTR reporter inhibition in Clone20-Shn3RL – cell-based, Renilla luciferase, cherry-picked, counter-screen for Shn3 inhibitor project, dose response (AID 624133); type: functional
# [20] = Luminescence Cell-Based Dose Confirmation HTS to Identify Activators of 5'UTR Stem-Loop Driven Alpha-Synuclein mRNA Translation in H4 Neuroglioblastoma Cells. [Related pubchem assays: 1829 (Project Summary), 1814 (Primary HTS)]; type: functional
# [21] = Luminescence Cell-Based Dose Response HTS to Identify Activators of Luciferase Translation or Activity in H4 […] Cells. [Related pubchem assays: 1829 (Project Summary), 1814 (Primary HTS)]; type: functional
# [22] = A Cell Based Secondary Assay To Explore Cytotoxicity of Compounds that Sensitize Mycobacterium Tuberculosis to Beta-Lactam Antibiotics.; type: functional
# [23] = test system: H4; experiment: Luminescence Cell-Based Dose Response HTS to Identify Activators of 5'UTR Stem-Loop Driven Prion Protein mRNA Translation in H4 Neuroglioblastoma Cells. [Related pubchem assays: 1829 (Project Summary), 1814 (Primary HTS)]; type: functional; details: Homo sapiens
# Chain of Sphingosine 1-phosphate receptor 2 (O95136 whole entry): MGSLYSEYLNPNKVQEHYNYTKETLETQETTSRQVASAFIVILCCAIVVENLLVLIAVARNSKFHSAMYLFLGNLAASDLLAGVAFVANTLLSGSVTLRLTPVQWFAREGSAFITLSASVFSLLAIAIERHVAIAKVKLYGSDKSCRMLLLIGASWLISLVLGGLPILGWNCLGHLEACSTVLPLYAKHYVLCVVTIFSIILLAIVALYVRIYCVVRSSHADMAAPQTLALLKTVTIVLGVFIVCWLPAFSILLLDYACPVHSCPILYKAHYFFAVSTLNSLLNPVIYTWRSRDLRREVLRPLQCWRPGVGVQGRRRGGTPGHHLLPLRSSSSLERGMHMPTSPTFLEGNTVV
# Chain of Kallikrein-7 (P49862 whole entry, the tested form may be a part): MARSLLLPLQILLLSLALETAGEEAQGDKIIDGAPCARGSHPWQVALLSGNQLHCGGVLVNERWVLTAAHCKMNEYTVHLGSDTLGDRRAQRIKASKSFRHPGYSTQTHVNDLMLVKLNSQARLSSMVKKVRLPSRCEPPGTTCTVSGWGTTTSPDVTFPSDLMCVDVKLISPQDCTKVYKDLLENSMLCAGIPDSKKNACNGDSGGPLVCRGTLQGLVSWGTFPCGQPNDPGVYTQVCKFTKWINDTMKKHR
# Chain of Estrogen receptor beta (Q92731 whole entry): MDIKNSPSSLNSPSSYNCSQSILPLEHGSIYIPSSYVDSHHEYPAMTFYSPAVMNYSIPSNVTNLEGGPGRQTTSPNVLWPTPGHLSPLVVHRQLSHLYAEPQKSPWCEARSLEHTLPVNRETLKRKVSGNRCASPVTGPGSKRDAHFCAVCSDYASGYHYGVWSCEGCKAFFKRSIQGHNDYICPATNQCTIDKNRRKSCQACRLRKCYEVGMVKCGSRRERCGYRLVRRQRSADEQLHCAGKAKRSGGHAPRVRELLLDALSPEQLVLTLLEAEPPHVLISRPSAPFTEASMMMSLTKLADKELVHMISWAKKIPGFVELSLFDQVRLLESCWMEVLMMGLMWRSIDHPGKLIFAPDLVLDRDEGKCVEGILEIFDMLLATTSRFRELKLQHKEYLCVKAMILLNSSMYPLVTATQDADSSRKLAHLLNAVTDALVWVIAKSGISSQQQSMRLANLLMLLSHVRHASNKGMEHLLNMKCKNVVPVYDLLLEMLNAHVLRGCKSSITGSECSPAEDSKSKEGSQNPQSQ
structure (smiles),measurement,setting,value
O=C(O)c1cc2sccc2s1,IC50,[1],> 50 µM (not active)
CC(C)Oc1ccc(C(=O)Nc2ccc(Cl)c(S(=O)(=O)Nc3ccc(Cl)cc3)c2)cc1,CC50,[2],28.1 µM (active)
CCCCC(=O)OCC(=O)Nc1ccc(SC(F)F)cc1,IC50,[3],> 100 µM (active)
Cc1cc(C(=O)COc2ccc(C(N)=O)cc2)c(C)n1Cc1ccccc1,EC50,[4],> 30 µM (not active)
COc1ccc(OC)c(CCNC(=O)Cn2nc(C)c3c(C)n(-c4ccc(C)cc4)nc3c2=O)c1,IC50,[5],> 80 µM (inactive)
same,IC50,[6],2.76 µM (active)
same,EC50,[7],> 29.9 µM (inactive)
same,IC50,[8],2.61 µM (active)
CC[C@@H]1C(c2ccc(F)cc2)=NN(c2ccccc2)[C@H]1C(=O)N1CCOC1=O,EC50,[9],7.45 µM (active)
Cc1ccc(OCCC(=O)Nc2ccc(C)c(F)c2)cc1,IC50,[3],> 100 µM (active)
CC(=O)c1ccc(OCC(=O)c2cc(C)n(Cc3ccccc3)c2C)cc1,EC50,[4],> 30 µM (not active)
CCc1ccccc1NC(=O)CNC(=O)CCc1nc2sc3c(c2c(=O)[nH]1)CCCC3,IC50,[10],5.82 µM (active)
same,AC50,[11],24.8 µM (active)
COc1cccc(C2(C)NC(=O)N(CC(=O)c3cc(C)n(Cc4ccccc4)c3C)C2=O)c1 (stereo not drawn),EC50,[4],> 30 µM (not active)
Cc1ccc(S(=O)(=O)N2CCN(C)CC2)cc1-c1nnc2c3ccccc3c(C)nn12,IC50,[12],23.1 µM (active)
O=C(O)CCNc1cc2ccccc2cc1C(=O)O,IC50,[13],> 50 µM (not active)
same,IC50,[14],> 50 µM (not active)
same,IC50,[15],> 100 µM (inactive)
CCOc1ccc(OCC)c(NC(=O)CN2CCN(c3cc(C)ccc3C)CC2)c1,IC50,[3],> 100 µM (active)
Cc1cc(C)c2cc(C=O)c(Cl)nc2c1,IC50,[13],14.2 µM (active)
same,IC50,[14],17.1 µM (active)
CCN(c1ccccc1)S(=O)(=O)c1ccc(Cl)c(NC(=O)CSc2nc[nH]n2)c1,CC50,[16],46.3 µM (active)
same,IC50,[12],16.9 µM (active)
CCC(C)C(NC(=O)CCCNC(=O)CCC(=O)OC1O[C@H]2OC3(C)CC[C@H]4[C@H](C)CCC(C1C)C24OO3)C(=O)O (stereo partly drawn),AC50,[17],1.02 µM (active)
same,AC50,[18],> 70 µM (inactive)
same,AC50,[19],0.683 µM (active)
same,IC50,[8],> 85.4 µM (inactive)
Cc1nc(N=C(N)NC(=O)c2ccccc2)nc2ccccc12,EC50,[20],8.34 µM (active)
same,EC50,[21],28.4 µM (active)
same,CC50,[22],> 40 µM (active)
same,EC50,[23],63.4 µM (active)
c1ccc(-c2cc(N3CCOCC3)nc3ccccc23)cc1,CC50,[22],> 40 µM (active)
CS(=O)(=O)c1ccc(-c2sc3cc4c(cc3c2C(=O)NN2CCOCC2)OCO4)cc1,IC50,[10],14.6 µM (active)
same,EC50,[9],> 23.2 µM (inactive)
COc1ccc(-c2ccc3c(n2)CCCN3Cc2ccccc2C(F)(F)F)cc1,EC50,[9],17.2 µM (inactive)
C(=N\Nc1ncnc2sc3c(c12)CCC3)/c1ccncc1,CC50,[16],38.7 µM (active)
same,CC50,[2],> 100 µM (active)
COc1cc(C)c2occ(/C(C)=N\O)c2c1,IC50,[12],18.4 µM (active)
